Measured values: patent US20240018153A1, “BENZENESULFONAMIDE DERIVATIVES AND USES THEREOF” (2692372 ONTARIO, INC., priority 2020, published 2024)

Assays:
EGFR = EGFR (Homo sapiens (Human), UniProt P00533); experiment: HTRF KinEASE-TK kinase assay, EGFR; type: biochemical; conditions: 3 h preincubation; for remaining activity at 1 µM: 1 μM compound, read-out: % EGFR Remaining activity vs DMSO (1 μM, 3 h); for remaining activity at 10 µM: 10 μM compound, read-out: % EGFR Remaining activity vs DMSO (10 μM, 3 h); for IC50: dose response, read-out: EGFR Inhibition IC50
Chain of EGFR (P00533 25-1210): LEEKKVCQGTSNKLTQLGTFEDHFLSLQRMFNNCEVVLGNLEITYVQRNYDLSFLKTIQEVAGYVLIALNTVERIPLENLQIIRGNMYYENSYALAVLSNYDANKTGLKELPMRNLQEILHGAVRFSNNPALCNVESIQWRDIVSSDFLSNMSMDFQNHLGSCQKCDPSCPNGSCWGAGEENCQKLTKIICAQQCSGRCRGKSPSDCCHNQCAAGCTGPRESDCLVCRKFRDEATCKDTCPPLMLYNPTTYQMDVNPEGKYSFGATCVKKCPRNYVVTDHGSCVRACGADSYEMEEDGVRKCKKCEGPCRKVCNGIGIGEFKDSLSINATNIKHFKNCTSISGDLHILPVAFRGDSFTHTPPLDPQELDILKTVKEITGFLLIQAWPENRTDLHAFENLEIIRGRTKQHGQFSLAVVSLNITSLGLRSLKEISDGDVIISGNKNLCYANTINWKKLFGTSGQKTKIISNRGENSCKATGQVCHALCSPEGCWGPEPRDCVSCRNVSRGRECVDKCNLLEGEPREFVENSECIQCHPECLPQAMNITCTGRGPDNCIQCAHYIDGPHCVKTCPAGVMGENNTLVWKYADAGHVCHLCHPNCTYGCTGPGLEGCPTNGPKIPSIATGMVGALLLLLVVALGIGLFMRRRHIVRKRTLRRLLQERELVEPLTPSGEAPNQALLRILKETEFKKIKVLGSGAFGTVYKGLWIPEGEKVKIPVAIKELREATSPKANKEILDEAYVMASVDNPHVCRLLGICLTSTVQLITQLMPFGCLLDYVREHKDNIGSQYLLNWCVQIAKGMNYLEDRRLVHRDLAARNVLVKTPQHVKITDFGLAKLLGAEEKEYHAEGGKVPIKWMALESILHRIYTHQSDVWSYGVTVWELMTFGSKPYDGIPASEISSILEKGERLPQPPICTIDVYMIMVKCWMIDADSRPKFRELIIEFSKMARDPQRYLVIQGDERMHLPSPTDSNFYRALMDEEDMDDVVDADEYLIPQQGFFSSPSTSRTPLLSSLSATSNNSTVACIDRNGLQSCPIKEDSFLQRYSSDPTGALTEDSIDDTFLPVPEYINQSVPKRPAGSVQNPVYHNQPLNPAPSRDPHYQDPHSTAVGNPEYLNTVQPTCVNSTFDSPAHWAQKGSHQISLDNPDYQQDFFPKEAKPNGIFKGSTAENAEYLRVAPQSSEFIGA
Summary of the method: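 HTRF KinEASE-TK format: EGFR pre-incubated with compound at 1 and 10 uM final (0.5% DMSO) in kinase buffer with 2 mM MnCl2, 5 mM MgCl2 and 1 mM TCEP.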

BTK [1] = molecular target: T1, BTK (Homo sapiens (Human), UniProt Q06187); experiment: HTRF KinEASE-TK kinase assay, BTK; type: biochemical; conditions: 3 h preincubation; for remaining activity at 1 µM: 1 μM compound, read-out: % BTK Remaining activity vs DMSO (1 μM, 3 h); for remaining activity at 10 µM: 10 μM compound, read-out: % BTK Remaining activity vs DMSO (10 μM, 3 h); for IC50: dose response, read-out: BTK Inhibition IC50
T1 sequence (Q06187 whole entry): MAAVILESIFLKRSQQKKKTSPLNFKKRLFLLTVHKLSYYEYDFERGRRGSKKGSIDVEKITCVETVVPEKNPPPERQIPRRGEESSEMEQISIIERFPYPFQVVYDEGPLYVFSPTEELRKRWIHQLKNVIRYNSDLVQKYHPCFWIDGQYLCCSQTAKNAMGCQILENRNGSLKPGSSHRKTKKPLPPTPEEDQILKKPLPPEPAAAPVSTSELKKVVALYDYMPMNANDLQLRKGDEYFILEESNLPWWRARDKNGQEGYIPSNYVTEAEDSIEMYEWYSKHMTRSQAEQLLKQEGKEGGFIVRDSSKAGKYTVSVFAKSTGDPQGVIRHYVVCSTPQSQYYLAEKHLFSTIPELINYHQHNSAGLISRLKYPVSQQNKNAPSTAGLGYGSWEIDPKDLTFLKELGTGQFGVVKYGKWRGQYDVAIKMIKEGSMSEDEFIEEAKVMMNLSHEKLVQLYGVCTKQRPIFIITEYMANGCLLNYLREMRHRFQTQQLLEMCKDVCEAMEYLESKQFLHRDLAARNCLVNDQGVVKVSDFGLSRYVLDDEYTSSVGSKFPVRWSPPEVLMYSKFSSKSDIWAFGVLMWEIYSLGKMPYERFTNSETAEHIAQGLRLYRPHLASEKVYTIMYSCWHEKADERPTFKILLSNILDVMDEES
Summary of the method: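 BTK activity in HTRF KinEASE-TK format, buffer containing 10 mM MnCl2, 5 mM MgCl2, 1 uM ATPγS and 1 mM TCEP; 45 min reaction with biotinylated substrate and ATP.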

BTK [2] = molecular target: T1, BTK; experiment: Ramos RA1 cell lysis and immunoassay, phospho-BTK (Y223) inhibition; type: cell-based; design: key: X: BTK bound and autophosphoration of BTK inhibited in cells; conditions: RAMOS cells, compound concentration 1 μM
Summary of the method: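 Ramos RA1 cells treated with compound or DMSO for 24 h at 37° C., lysed in RIPA, analysed by Simple Western. Total BTK normalised to β-actin, pBTK (Y223) to total-protein reagent; both expressed relative to DMSO control.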

BTK [3] = molecular target: T1, BTK; experiment: Ramos RA1 cell lysis and immunoassay, total BTK degradation; type: cell-based; design: key to % BTK degradation (RAMOS, 24 h): Y: BTK bound in cells and BTK degradation occurred; concentration or dose not given beside the values; key to % BTK degradation (RAMOS, 10 uM, 24 h): Y: EGFR bound in cells and EGFR degradation occurred; conditions: RAMOS cells
Description: Ramos RA 1 cells (ATCC) were cultured in RPMI-1640 media (Wisent) supplemented with 10% heat-inactivated FBS and 1% penicillin/streptomycin. Cells were seeded in 6-well plates at 1.71×10^6 cells/well and incubated at 37° C., 5% CO2 for 16 hours. Cells were treated with compound at the indicated concentrations or DMSO alone and incubated at 37° C., 5% CO2 for 24 hours. Cell suspensions were centrifugated at 1,400-1,600 RPM for 5 minutes at room temperature and supernatants were discarded. Cell pellets were resuspended with 1× RIPA buffer (Millipore) and incubated on ice for 15 minutes. Protein lysates were extracted by centrifugating at 20,000 RPM for 20 minutes at 4° C. Proteins were separated and total BTK protein levels were quantified by Simple Western Immunoassay (ProteinSimple) using the 12-230 kDa Jess Separation Module according to the manufacturer's protocol, using a protein concentration of 0.25 μg/μl and antibodies targeting BTK (clone #D3H5, Cell Signalling) and β-Actin (clone #AC-15, Santa Cruz) diluted to 1:400 and 1:10, respectively, where the latter was used as a loading control. An equal ratio of rabbit and mouse HRP-conjugated secondary antibodies was used for detection. BTK protein levels were quantified relative to S-Actin loading levels and subsequently normalized to the DMSO control. Phosphorylated BTK levels were quantified using the Protein Normalization Assay Module for Jess (ProteinSimple) according to the manufacturer's protocol, using a protein concentration of 1.5 μg/μl and an antibody targeting pBTK (Y223) (Cell Signalling) diluted to 1:50. Phosphorylated BTK levels were quantified relative to the Protein Normalization Reagent and subsequently normalized to the DMSO control.

BMX = BMX (Homo sapiens (Human), UniProt P51813); experiment: HTRF KinEASE-TK kinase assay, BMX; type: biochemical; conditions: for remaining activity at 1 µM: 1 uM compound; for remaining activity at 1 µM / remaining activity at 10 µM: 3 h preincubation; for remaining activity at 10 µM: 10 uM compound; for IC50: dose response
Chain of BMX (P51813 whole entry): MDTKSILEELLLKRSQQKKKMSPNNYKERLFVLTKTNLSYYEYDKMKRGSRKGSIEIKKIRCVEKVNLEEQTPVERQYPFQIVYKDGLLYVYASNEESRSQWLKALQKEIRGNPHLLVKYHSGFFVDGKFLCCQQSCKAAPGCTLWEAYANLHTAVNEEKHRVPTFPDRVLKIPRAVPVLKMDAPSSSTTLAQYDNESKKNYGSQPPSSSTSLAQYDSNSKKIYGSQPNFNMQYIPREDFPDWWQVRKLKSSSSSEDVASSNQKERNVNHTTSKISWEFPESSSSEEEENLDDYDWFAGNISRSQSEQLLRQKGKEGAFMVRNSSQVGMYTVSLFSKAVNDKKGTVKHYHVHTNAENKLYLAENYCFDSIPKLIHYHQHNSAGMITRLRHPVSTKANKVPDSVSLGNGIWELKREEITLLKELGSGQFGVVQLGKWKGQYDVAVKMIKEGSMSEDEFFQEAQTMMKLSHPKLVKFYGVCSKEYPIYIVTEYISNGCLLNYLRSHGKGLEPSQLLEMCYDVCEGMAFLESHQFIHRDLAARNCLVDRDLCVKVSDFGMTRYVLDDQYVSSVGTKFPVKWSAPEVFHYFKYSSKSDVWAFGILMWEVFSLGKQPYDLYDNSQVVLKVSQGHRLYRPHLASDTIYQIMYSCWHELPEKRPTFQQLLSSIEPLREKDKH
Summary of the method: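 Purchased BMX (0.333 ng/ul, 3.03 nM) was preincubated with or without inhibitor for 3 h at room temperature, then biotinylated substrate and ATP were added. Reactions were stopped with EDTA-containing buffer holding 31.25 nM SA-XL665 and Eu-antibody, and after 60 min phosphorylation was read as the HTRF 665/620 nm emission ratio.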

JAK3 = JAK3 (Homo sapiens (Human), UniProt P52333); experiment: HTRF KinEASE-TK kinase assay, JAK3; type: biochemical; conditions: for remaining activity at 1 µM: read-out: % JAK3 Remaining activity vs DMSO (1 μM, 3 h); for remaining activity at 10 µM: read-out: % JAK3 Remaining activity vs DMSO (10 μM, 3 h)
Chain of JAK3 (P52333 781-1124): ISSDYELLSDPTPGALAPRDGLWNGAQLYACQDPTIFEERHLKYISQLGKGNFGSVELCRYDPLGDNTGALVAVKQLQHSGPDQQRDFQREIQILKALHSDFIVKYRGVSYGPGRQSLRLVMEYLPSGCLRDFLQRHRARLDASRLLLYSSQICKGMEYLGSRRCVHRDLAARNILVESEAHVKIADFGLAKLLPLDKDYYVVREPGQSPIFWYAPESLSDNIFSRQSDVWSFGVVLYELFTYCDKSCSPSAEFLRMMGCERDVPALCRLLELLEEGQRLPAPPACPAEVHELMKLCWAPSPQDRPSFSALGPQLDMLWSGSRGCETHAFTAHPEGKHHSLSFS
Summary of the method: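 Promega JAK3 at 0.21 nM was preincubated with inhibitor for 3 h at room temperature before biotinylated substrate and ATP were added. The reaction was stopped with EDTA detection buffer containing 31.25 nM SA-XL665 and Eu-antibody. After 60 min, the HTRF 665/620 nm emission ratio reflected substrate phosphorylation.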

FGFR4 = FGFR4 (Homo sapiens (Human), UniProt P22455); experiment: HTRF KinEASE-TK kinase assay, FGFR4; type: biochemical; conditions: for remaining activity at 1 µM: read-out: % FGFR4 Remaining activity vs DMSO (1 μM, 3 h); for remaining activity at 10 µM: read-out: % FGFR4 Remaining activity vs DMSO (10 μM, 3 h)
Chain of FGFR4 (P22455 22-802): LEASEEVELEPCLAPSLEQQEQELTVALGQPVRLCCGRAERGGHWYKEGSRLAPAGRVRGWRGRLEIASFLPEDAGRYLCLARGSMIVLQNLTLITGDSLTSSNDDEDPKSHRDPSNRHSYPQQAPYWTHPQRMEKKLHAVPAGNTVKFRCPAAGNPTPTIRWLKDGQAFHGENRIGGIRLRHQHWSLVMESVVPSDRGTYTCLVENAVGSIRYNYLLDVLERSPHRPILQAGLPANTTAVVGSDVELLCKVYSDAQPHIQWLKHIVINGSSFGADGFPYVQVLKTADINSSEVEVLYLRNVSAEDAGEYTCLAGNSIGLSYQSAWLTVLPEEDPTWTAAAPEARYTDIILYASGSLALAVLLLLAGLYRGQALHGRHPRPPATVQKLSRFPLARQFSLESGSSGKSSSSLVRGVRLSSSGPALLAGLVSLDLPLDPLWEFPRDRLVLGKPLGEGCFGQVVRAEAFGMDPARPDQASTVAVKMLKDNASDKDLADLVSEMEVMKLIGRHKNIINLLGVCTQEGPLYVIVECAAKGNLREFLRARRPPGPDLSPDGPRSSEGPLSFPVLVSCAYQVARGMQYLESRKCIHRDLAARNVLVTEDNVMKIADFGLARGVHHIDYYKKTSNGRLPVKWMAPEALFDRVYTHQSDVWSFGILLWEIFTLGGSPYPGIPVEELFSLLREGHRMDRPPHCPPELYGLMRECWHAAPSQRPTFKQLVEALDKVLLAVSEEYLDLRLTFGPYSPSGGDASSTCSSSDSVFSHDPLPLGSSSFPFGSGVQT
Summary of the method: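 Promega FGFR4 at 0.333 ng/ul (5.12 nM) preincubated with or without inhibitor for 3 h at room temperature, then reaction started with biotinylated substrate and ATP. Stopped with EDTA detection buffer containing 31.25 nM SA-XL665 and Eu-antibody; after 60 min, HTRF 665/620 nm ratio read as substrate phosphorylation.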

SMILES	remaining activity at 1 µM (EGFR) [%]	remaining activity at 10 µM (EGFR) [%]	IC50 (EGFR) [µM]	remaining activity at 1 µM (BTK [1]) [%]	remaining activity at 10 µM (BTK [1]) [%]	IC50 (BTK [1]) [µM]	pBTK inhibition (RAMOS, 24 h) (BTK [2])	% BTK degradation (RAMOS, 24 h) (BTK [3])	remaining activity at 1 µM (BMX) [%]	remaining activity at 10 µM (BMX) [%]	IC50 (BMX) [µM]	IC50 (JAK3; dose response) [µM]	remaining activity at 1 µM (JAK3) [%]	remaining activity at 10 µM (JAK3) [%]	remaining activity at 1 µM (FGFR4) [%]	remaining activity at 10 µM (FGFR4) [%]	% BTK degradation (RAMOS, 10 uM, 24 h) (BTK [3]; 10 uM)
C[S@+]([O-])c1c(F)c(F)c(F)c(F)c1C(=O)N1CC(n2nc(-c3ccc(Oc4ccccc4)cc3)c3c(N)ncnc32)C1 (racemic) [Compound I-37, (3-(4-amino-3-(4-phenoxyphenyl)-1H-pyrazolo[3,4-d]pyrimidin-1-yl)azetidin-1-yl)(2,3,4,5-tetrafluoro-6-(methylsulfinyl)phenyl)methanone]	< 50	< 50	< 1	< 50	< 50	< 1	X	Y	< 50	< 50	< 1	> 1	< 50	< 50	> 90	> 90	–
C[S+]([O-])c1c(F)c(F)c(F)c(F)c1C(=O)Nc1cc2c(Nc3ccc(F)c(Cl)c3)ncnc2cc1OC1CCOC1 (centres unmarked) [Compound I-3]	< 50	< 50	< 1	50 to 90	50 to 90	–	X	Y	50 to 90	> 90	–	–	> 90	> 90	> 90	> 90	–
CS(=O)(=O)c1c(F)c(F)c(F)c(F)c1C(=O)Nc1cc2c(Nc3ccc(F)c(Cl)c3)ncnc2cc1O[C@H]1CCOC1 [Compound I-5, (S)—N-(4-((3-chloro-4-fluorophenyl)amino)-7-((tetrahydrofuran-3-yl)oxy)quinazolin-6-yl)-2,3,4,5-tetrafluoro-6-(methylsulfonyl)benzamide]	< 50	< 50	< 1	< 50	< 50	–	X	Y	50 to 90	< 50	–	–	50 to 90	< 50	> 90	> 90	–
CN(CCn1nc(-c2ccc(Oc3ccccc3)cc2)c2c(N)ncnc21)C(=O)c1c(F)c(F)c(F)c(F)c1S(N)(=O)=O [Compound I-33, N-(2-(4-amino-3-(4-phenoxyphenyl)-1H-pyrazolo[3,4-d]pyrimidin-1-yl)ethyl)-2,3,4,5-tetrafluoro-N-methyl-6-sulfamoylbenzamide]	> 90	< 50	–	< 50	< 50	< 1	X	Y	< 50	< 50	–	–	> 90	50 to 90	50 to 90	< 50	–

Results, then the compound that gave them:

remaining activity at 1 µM (EGFR) [%]	remaining activity at 10 µM (EGFR) [%]	IC50 (EGFR) [µM]	remaining activity at 1 µM (BTK [1]) [%]	remaining activity at 10 µM (BTK [1]) [%]	IC50 (BTK [1]) [µM]	pBTK inhibition (RAMOS, 24 h) (BTK [2])	% BTK degradation (RAMOS, 24 h) (BTK [3])	remaining activity at 1 µM (BMX) [%]	remaining activity at 10 µM (BMX) [%]	IC50 (BMX) [µM]	IC50 (JAK3; dose response) [µM]	remaining activity at 1 µM (JAK3) [%]	remaining activity at 10 µM (JAK3) [%]	remaining activity at 1 µM (FGFR4) [%]	remaining activity at 10 µM (FGFR4) [%]	% BTK degradation (RAMOS, 10 uM, 24 h) (BTK [3]; 10 uM)	SMILES
> 90	> 90	–	50 to 90	< 50	–	X	Y	50 to 90	50 to 90	–	–	> 90	> 90	50 to 90	> 90	–	C[S@+]([O-])c1c(F)c(F)c(F)c(F)c1C(=O)Nc1ncnc2[nH]ccc12 (racemic) [Compound I-46, 2,3,4,5-tetrafluoro-6-(methylsulfinyl)-N-(7H-pyrrolo[2,3-d]pyrimidin-4-yl)benzamide]
> 90	50 to 90	–	< 50	< 50	–	X	Y	< 50	< 50	–	–	> 90	< 50	< 50	< 50	–	COCCOc1ccc(Nc2ncc(F)c(Nc3cccc(NC(=O)c4c(F)c(F)c(F)c(F)c4[S@+](C)[O-])c3)n2)cc1 (stereo in doubt) [Compound I-62, 2,3,4,5-tetrafluoro-N-(3-((5-fluoro-2-((4-(2-methoxyethoxy)phenyl)amino)pyrimidin-4-yl)amino)phenyl)-6-(methylsulfinyl)benzamide]
> 90	> 90	–	< 50	50 to 90	–	X	Y	< 50	< 50	–	–	> 90	50 to 90	> 90	> 90	Y	COCCOc1ccc(Nc2ncc(F)c(Nc3cccc(Nc4c(F)c(F)c(F)c(F)c4[S@+](C)[O-])c3)n2)cc1 (stereo in doubt) [Compound I-63, 5-fluoro-N^2-(4-(2-methoxyethoxy)phenyl)-N^4-(3-((2,3,4,5-tetrafluoro-6-(methylsulfinyl)phenyl)amino)phenyl)pyrimidine-2,4-diamine]
> 90	> 90	–	< 50	< 50	–	–	Y	< 50	< 50	< 1	–	50 to 90	< 50	> 90	50 to 90	–	NS(=O)(=O)c1c(F)c(F)c(F)c(F)c1C(=O)NCCNc1ncnc2[nH]ccc12 [Compound I-48]
